Here are results for one compound from patent US20110201620A1, “2-(3-AMINOARYL) AMINO-4-ARYL-THIAZOLES AND THEIR USE AS C-KIT INHIBITORS” (AB SCIENCE, priority 2002, published 2011).

The test system of assay [1] is imatinib-resistant HMC-1 α155 cells. The experiment in a line: Apoptosis assay by propidium iodide staining. In kind it is cell-based, human. The settings on record: 1 μM. As to the method:
HMC-1 is a human mast cell line derived from a patient with mast cell leukaemia. The cell line used in this study, HMC-1 α155, is a clone derived from the original population expressing endogenous Kit bearing the mutation Val 560 to Gly. […] The medium used in this case was a RPMI medium containing L-glutamine (Cambrex cat# 12-702F) supplemented with 100 U/mL penicillin and 100 μg/mL streptomycin (Cambrex 100X penicilline/streptomycine mixture cat #17-602E), and with 10% v/v foetal calf serum (AbCys Lot S02823S1800) which has been previously heat-inactivated 30 minutes at 56° C. (RPMI 10). The medium containing the drugs was replaced with fresh one every 3-4 days. […] The principle behind the method for apoptosis assay by Propidium Iodide Staining (PI staining) is as follows: during apoptosis, DNA breakup causes small fragments of DNA to be free in the nucleus. Following appropriate elution with citrate buffer, these fragments are lost from the nucleus. As these cells now have a lower DNA content, subsequent staining with a DNA binding dye will reveal these cells in the sub-G1 region.
The % apoptosis represents the percentage of cells in apoptose with respect to overall cells.

The next assay has as its system Human Kit exon 9. The settings on record: read-out: Cell proliferation assay (IC50) Human Kit exon 9; cited from earlier work.

As for `Cc1ccc(NC(=O)c2ccc(CN3CCN(C)CC3)cc2)cc1Nc1nc(-c2cccnc2)cs1` [Compound 066, 4-(4-methyl-piperazin-1-ylmethyl)-N-[4-methyl-3-(4-pyridin-3-yl-thiazol-2-ylamino)-phenyl]-benzamide], in assay [1], the “% apoptosis (cells in apoptosis)” value is on record as “More than 45%”. In the assay on Human Kit exon 9, the IC50 was 100 nM.
